In PMC6271870, “Study on the Synthesis, Biological Activity and Spectroscopy of Naphthalimide-Diamine Conjugates” (Molecules, 2014):

Experiments:
[1] = test system: herring sperm DNA-EB; experiment: Fluorescence quenching of DNA-EB complex by compound (EB displacement); type: binding; details: DNA-EB quenched by 7f
Excerpt: Ethidium bromide (EB) is a well known DNA intercalator, which is often used as a spectral probe to establish the mode of binding of small molecules to double-helical DNA [41]. The ﬂuorescence of EB increases after binding with DNA due to intercalation. Like EB, if naphthalimides intercalate into the helix of DNA, it would compete with EB for its intercalation sites in DNA, and the displacement of EB from the DNA–EB complex leads to a signiﬁcant decrease in the ﬂuorescence intensity of the DNA-EB complex. Therefore, herring sperm DNA-EB complex in the presence of increasing concentrations of naphthalimide-diamine conjugate 7f was also measured.
The Stern–Volmer equation is the following: F0/F = 1+ KSVc = 1+ […] where F0 and F are the ﬂuorescence intensities in the absence and presence of quencher (DNA for compound 7f or compound 7f for DNA-EB, respectively), KSV is the Stern-Volmer quenching constant, [c] is the concentration of DNA (or compound 7f), Kq is the biomolecule quenching rate constant and Kq = KSV/τ0. τ0 is the average lifetime of the molecule without any quencher and the ﬂuorescence lifetime of the biopolymer is 10^−8 s. The Stern–Volmer plots of F0/F versus [c] at the three temperatures were shown in Figure 9 and Figure 10, and the calculated KSV and Kq values were presented in Table 2 and Table 3.
When small molecules bind independently to a set of equivalent sites in a macromolecule, the binding constant (Kb) can be determined by the following equation [40, 52]: log[1/c] = log [F/(F0 − F)] + logKb(3) where Kb denotes the binding constant for interaction of naphthalimide–DNA, and F0, F, [c] have the same meanings as in Equation (2).
There are several acting forces between a small organic molecule and biomacromolecules, such as hydrophobic force, hydrogen bond, van der Waals force, electrostatic interactions, etc. […]

[2] = test system: herring sperm DNA; experiment: Iodide (KI) fluorescence quenching in absence and presence of DNA; type: binding; details: KI quencher
Excerpt: A highly negatively charged quencher is expected to be repelled by the negatively charged phosphate backbone of DNA, therefore an intercalative bound drug molecules should be protected from being quenched by anionic quencher, but the free aqueous complexes or groove binding drugs should be quenched readily by anionic quenchers. At the same time, whether the quencher accesses to fluorophore also plays a role in free and bound one.
Negatively charged I^− was selected for this purpose. The quenching constants (Ksv) were obtained from the Stern–Volmer equation. […]
Solution of compound 7f (0.5 mL, 2.00 × 10^−4 mol/L and herring sperm DNA 0.5 mL ([…]) in Tris-HCl (pH = 7.4) were mixed with 0.0, 0.10, 0.20, 0.30, 0.60, 0.90 1.20, 1.50, 1.80, 2.10, 2.40, 2.70 and 3.00 of KI (2.0 × 10^−2 mol∙L^−1) respectively. Meanwhile, 0.5 mL solution of compound 7f (2.00 × 10^−4 mol/L was only mixed with 0.0, 0.10, 0.20, 0.30, 0.60, 0.90 1.20, 1.50, 1.80, 2.10, 2.40, 2.70 and 3.00 mL of KI (2.0 × 10^−2 mol∙L^−1) respectively. The mixture was diluted to 5 mL with Tris-HCl (pH = 7.4). Thus, samples were prepared in the concentration of KI at 0.0, 400, 800, 1,200, 2,400, 3,600, 4,800, 6,000, 7,200, 8,400, 9,600, 10,800, 12,000 × 10^−6 mol∙L^−1. […] Fluorescence wavelengths and intensity areas of samples were measured at following conditions: EX = 345 nm, EM = 355~600 nm.

In the case of Cl.Cl.NCCCCNCCCN1C(=O)c2cccc3cccc(c23)C1=O [Compound 7f, 2-[3-(4-Aminobutylamino)propyl]1H-benz-[de]isoquinoline-1,3(2H)-dione dihydrochloride], the “KSV (Stern-Volmer quenching constant)” value ([1]; 298 K) is reported as 5028 L/mol, the “KSV (Stern-Volmer quenching constant)” value ([1]; 303 K) is reported as 4564 L/mol and the “KSV (Stern-Volmer quenching constant)” value ([1]; 310 K) is reported as 4176 L/mol. The “Ksv with I^− ion” value ([2]; absence of DNA, 7f 20 × 10^−6 mol∙L^−1) was 38.178 L/mol and the “Ksv with I^− ion” value ([2]; presence of DNA 22.84 × 10^−6 mol∙L^−1, 7f 20 × 10^−6 mol∙L^−1) was 31.575 L/mol.
